Reference: patent publication US9447134B2 (priority 2012, dated 2016)

Experiments:
CpIMPDH [1] = target: T1, CpIMPDH (Cryptosporidium parvum, UniProt Q8T6T2)
T1 sequence (Q8T6T2 1-400): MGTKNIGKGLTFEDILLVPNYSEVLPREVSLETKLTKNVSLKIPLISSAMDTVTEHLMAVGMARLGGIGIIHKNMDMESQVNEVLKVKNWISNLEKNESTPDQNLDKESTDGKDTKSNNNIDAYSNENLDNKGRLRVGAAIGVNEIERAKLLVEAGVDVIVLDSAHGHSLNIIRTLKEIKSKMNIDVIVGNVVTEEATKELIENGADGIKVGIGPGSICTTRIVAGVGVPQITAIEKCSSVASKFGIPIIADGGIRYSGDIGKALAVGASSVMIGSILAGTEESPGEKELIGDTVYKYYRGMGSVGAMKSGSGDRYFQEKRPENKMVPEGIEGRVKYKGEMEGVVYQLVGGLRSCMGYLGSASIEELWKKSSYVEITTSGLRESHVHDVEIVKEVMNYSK

F. tularensis IMPDH = F. tularensis IMPDH (Francisella tularensis, UniProt Q5NFC2); assay: biochemical
B. anthracis IMPDH = B. anthracis IMPDH (Bacillus anthracis, UniProt A0A6L8P2U9); assay: biochemical
CpIMPDH [2] = target: T1, CpIMPDH; remark: listed apart in the source
[3] = Mouse liver microsomal stability
[4] = mouse, in vivo; cited from earlier work
Cryptosporidium = settings: mouse models; cited from earlier work
Caco-2 cells = settings: cited from earlier work
CpIMPDH [5] = target: T1, CpIMPDH; assay: biochemical

Sequence of B. anthracis IMPDH (A0A6L8P2U9 1-487): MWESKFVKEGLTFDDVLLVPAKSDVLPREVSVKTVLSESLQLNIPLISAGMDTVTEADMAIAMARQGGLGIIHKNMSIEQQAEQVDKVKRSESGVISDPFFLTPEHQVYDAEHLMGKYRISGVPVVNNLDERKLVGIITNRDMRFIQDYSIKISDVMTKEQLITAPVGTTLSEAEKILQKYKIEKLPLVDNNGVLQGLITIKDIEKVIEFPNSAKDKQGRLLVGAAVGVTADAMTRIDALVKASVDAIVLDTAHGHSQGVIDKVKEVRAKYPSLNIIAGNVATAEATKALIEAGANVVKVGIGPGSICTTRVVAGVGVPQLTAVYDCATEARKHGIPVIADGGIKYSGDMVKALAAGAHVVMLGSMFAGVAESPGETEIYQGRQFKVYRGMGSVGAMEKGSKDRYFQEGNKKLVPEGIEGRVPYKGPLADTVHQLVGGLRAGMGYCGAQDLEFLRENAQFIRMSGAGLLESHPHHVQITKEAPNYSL
Sequence of F. tularensis IMPDH (Q5NFC2 1-486): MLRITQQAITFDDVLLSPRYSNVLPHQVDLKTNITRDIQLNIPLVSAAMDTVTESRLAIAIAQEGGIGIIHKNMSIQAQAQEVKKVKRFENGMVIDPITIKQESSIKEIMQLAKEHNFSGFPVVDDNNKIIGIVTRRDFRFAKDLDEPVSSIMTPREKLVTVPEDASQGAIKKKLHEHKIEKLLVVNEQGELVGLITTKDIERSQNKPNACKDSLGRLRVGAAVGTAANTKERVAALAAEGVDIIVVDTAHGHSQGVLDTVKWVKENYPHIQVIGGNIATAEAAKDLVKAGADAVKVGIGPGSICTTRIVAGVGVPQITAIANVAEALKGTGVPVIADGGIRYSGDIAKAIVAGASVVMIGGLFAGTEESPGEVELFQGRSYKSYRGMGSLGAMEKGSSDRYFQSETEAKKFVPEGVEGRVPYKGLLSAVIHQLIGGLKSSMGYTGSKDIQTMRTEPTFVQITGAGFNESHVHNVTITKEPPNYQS

Question: Which “CpIMPDH inhibitory activity (SAR, in words)” value (“CpIMPDH inhibitory activity” for short) (CpIMPDH [1]) does the source give for `Cn1nc(CC(=O)Nc2ccc3c(c2)oc2ccccc23)c2ccccc2c1=O` [Compound D72, N-(dibenzo[b,d]furan-3-yl)-2-(3-methyl-4-oxo-3,4-dihydrophthalazin-1-yl)acetamide] here?
Answer: The value was “not active”.

Question: For `C=C(C)c1cccc(C(C)(C)NC(=O)Nc2ccc3c(c2)OCCO3)c1` [Compound P113], which IC50 (F. tularensis IMPDH) is on record?
Answer: The IC50 was 41 nM.

Question: And the IC50 (B. anthracis IMPDH)?
Answer: Its IC50 is 110 nM.

Question: Which IC50 (F. tularensis IMPDH) does the source give for `CC(=O)c1cccc(C(C)(C)OC(=O)Nc2ccc(Cl)cc2)c1` [Compound P112] here?
Answer: Its IC50 is 390 nM.

Question: And the IC50 (B. anthracis IMPDH)?
Answer: The IC50 was 520 nM.

Question: Which melting point does the source give for `C=C(C)c1cccc(C(C)(C)NC(=O)Nc2ccc(Cl)c(Cl)c2)c1` [Compound 5h, 1-(3,4-Dichlorophenyl)-3-(2-(3-(prop-1-en-2-yl)phenyl)propan-2-yl)urea] here?
Answer: Its melting point is 198 to 200 °C.

Question: For `CC(NC(=O)c1ccc2oc(-c3ccncc3)nc2c1)c1ccccc1` (stereo not drawn) [Compound Q63], which IC50 (F. tularensis IMPDH) is on record?
Answer: Its IC50 is 200000 nM.

Question: What about the IC50 (B. anthracis IMPDH) of the same compound?
Answer: Its IC50 is 200000 nM.

Question: Which melting point does the source give for `C=C(C)c1cccc(C(C)(C)NC(=O)Nc2ccc3ccccc3c2)c1` [Compound 5o, 1-(Naphthalen-2-yl)-3-(2-(3-(prop-1-en-2-yl)phenyl)propan-2-yl)urea] here?
Answer: Its melting point is 201 to 203 °C.

Question: Which “inhibition mechanism with respect to NAD+” value (CpIMPDH [2]) does the source give for `Cn1nc(CC(=O)Nc2ccc(Cl)c(C(F)(F)F)c2)c2ccccc2c1=O` here?
Answer: The value was “pure noncompetitive inhibitor”.

Question: And the Ki (CpIMPDH [2]; read-out: Kis, with respect to NAD+)?
Answer: The Ki was 3.4 ± 0.2 nM.

Question: What about the “half-life in mouse liver microsomes” value ([3]; presence or absence of NADPH not given) of the same compound?
Answer: The value was 79 min.

Question: With “N-(6,7,8,9-tetrahydrodibenzo[b,d]furan-5-yl)-2-(3-methyl-4-oxo-3,4-dihydro-phthalazin-1-yl)acetamide [Compound D67]” as the compound, how does the “CpIMPDH inhibitory activity” value (CpIMPDH [1]) read?
Answer: The value was “enhanced potency”.

Question: With `Cn1nc(CC(=O)Nc2ccc3[nH]c4ccccc4c3c2)c2ccccc2c1=O` [Compound D70, N-(9H-carbazol-3-yl)-2-(3-methyl-4-oxo-3,4-dihydrophthalazin-1-yl)acetam-de] as the compound, how does the “CpIMPDH inhibitory activity” value (CpIMPDH [1]) read?
Answer: The value was “not active”.

Question: With `Cn1nc(CC(=O)Nc2ccc(Cl)c(F)c2)c2ccccc2c1=O` [Compound D52] as the compound, how does the IC50 (B. anthracis IMPDH) read?
Answer: The IC50 was 900 nM.

Question: Which melting point does the source give for `C/C(=N\O)c1cccc(C(C)(C)NC(=O)Nc2ccc3cccnc3c2)c1` [Compound 7e, (E)-1-(2-(3-(1-(Hydroxyimino)ethyl)phenyl)propan-2-yl)-3-(quinolin-7-yl)urea] here?
Answer: The melting point was 164 to 166 °C.

Question: With `C/C(=N\O)c1cccc(C(C)(C)NC(=O)Nc2ccc(Cl)c(C(F)(F)F)c2)c1` [Compound 7a, (E)-1-(4-Chloro-3-(trifluoromethyl)phenyl)-3-(2-(3-(1-(hydroxyimino)ethyl)phenyl)propan-2-yl)urea] as the compound, how does the melting point read?
Answer: Its melting point is 194 to 196 °C.

Question: For `C[C@H](Nc1cccc(Cl)c1Cl)C(=O)Nc1ccc2oc(-c3ccncc3)nc2c1` [Compound Q67, (S)-2-(2,3-dichlorophenylamino)-N-(2-(pyridine-4-yl)benzo[d]oxazol-5-yl)propanamide], which IC50 (F. tularensis IMPDH) is on record?
Answer: Its IC50 is 27.1 nM.

Question: And the IC50 (B. anthracis IMPDH)?
Answer: The IC50 was 26.8 nM.

Question: Which IC50 (F. tularensis IMPDH) does the source give for `C[C@H](Sc1cccc(Cl)c1Cl)C(=O)Nc1ccc2oc(-c3ccncc3)nc2c1` [Compound Q75] here?
Answer: Its IC50 is 192 nM.

Question: What about the IC50 (B. anthracis IMPDH) of the same compound?
Answer: Its IC50 is 151 nM.

Question: With `C/C(=N\OC(C)(C)C)c1cccc(C(C)(C)NC(=O)Nc2ccc(Cl)c([N+](=O)[O-])c2)c1` [Compound P127] as the compound, how does the IC50 (F. tularensis IMPDH) read?
Answer: Its IC50 is 1800 nM.

Question: What about the IC50 (B. anthracis IMPDH) of the same compound?
Answer: Its IC50 is 94 nM.

Question: Which IC50 (F. tularensis IMPDH) does the source give for `Cn1nc(CC(=O)Nc2ccc(Br)c(C(F)(F)F)c2)c2ccccc2c1=O` [Compound D45] here?
Answer: The IC50 was 270 nM.

Question: For `CC(=O)Oc1ccccc1C(=O)Nc1ncc([N+](=O)[O-])s1` [nitazoxanide], which “systemic distribution / oral bioavailability (literature, in words)” value [4] is on record?
Answer: The value was “systemically distributed”.

Question: What about the “in vivo anticryptosporidial efficacy (literature, in words)” value (Cryptosporidium) of the same compound?
Answer: Its value is “little to no efficacy”.

Question: For `C=C(C)c1cccc(C(C)(C)NC(=O)Nc2ccccc2)c1` [Compound 5a, 1-Phenyl-3-(2-(3-(prop-1-en-2-yl)phenyl)propan-2-yl)urea], which melting point is on record?
Answer: The melting point was 188 to 190 °C.

Question: For `NC[C@@H]1O[C@H](O[C@H]2[C@@H](O)[C@H](O[C@@H]3[C@@H](O)[C@H](N)C[C@H](N)[C@H]3O[C@H]3O[C@H](CO)[C@@H](O)[C@H](O)[C@H]3N)O[C@@H]2CO)[C@H](N)[C@@H](O)[C@@H]1O` [Paromomycin, paromomycin], which “range of reduction of fecal oocysts over experiments” value (C. parvum; paromomycin 2000 mg/kg daily oral gavage) is on record?
Answer: The value was 73-99%.

Question: What about the “average reduction of fecal oocysts” value (C. parvum; paromomycin 2000 mg/kg daily oral gavage, average of experiments) of the same compound?
Answer: The value was 89%.

Question: And the “reduction of fecal oocysts, multiple daily dose regime” value (C. parvum; three daily doses (P131 3×83 mg/kg), 10,000 oocysts, counted day 4 post-infection)?
Answer: The value was 88-95%.

Question: What about the “systemic distribution / oral bioavailability (literature, in words)” value [4] of the same compound?
Answer: Its value is “poor oral bioavailability”.

Question: What about the “accumulation in Caco-2 cells (in words)” value (Caco-2 cells) of the same compound?
Answer: Its value is “high accumulation”.

Question: With `O=c1[nH]c(=O)n([C@H]2C[C@H](O)[C@@H](CO)O2)cc1C(F)(F)F` [Trifluoromethylthymidine] as the compound, how does the “in vivo anticryptosporidial efficacy (literature, in words)” value (Cryptosporidium) read?
Answer: Its value is “significant anticryptosporidial activity”.

Question: With `CC(=NOC(C)(C)C)c1cccc(C(C)(C)NC(=O)Nc2ccc(Cl)c(C(F)(F)F)c2)c1` [Compound P114] as the compound, how does the IC50 (F. tularensis IMPDH) read?
Answer: Its IC50 is 6900 nM.

Question: What about the IC50 (B. anthracis IMPDH) of the same compound?
Answer: Its IC50 is 56 nM.

Question: With `Cn1nc(CC(=O)Nc2ccc3ocnc3c2)c2ccccc2c1=O` [Compound D64, N-(benzo[d]oxazol-5-yl)-2-(3-methyl-4-oxo-3,4-dihydrophthalazin-1-yl)acetamide] as the compound, how does the “CpIMPDH inhibitory activity” value (CpIMPDH [1]) read?
Answer: Its value is “inactive”.

Question: For `C=C(C)c1cccc(C(C)(C)NC(=O)Nc2ccc3ccccc3n2)c1` [Compound 5t, 1-(2-(3-(prop-1-en-2-yl)phenyl)propan-2-yl)-3-(quinolin-2-yl)urea], which melting point is on record?
Answer: Its melting point is 126 to 128 °C.

Question: For `CC1(c2cccc(CNC(=O)Nc3ccc(Cl)cc3)c2)OCCO1` [Compound 22, 1-(4-Chlorophenyl)-3-(3-(2-methyl-1,3-dioxolan-2-yl)benzyl)urea], which “half-life in mouse liver microsomes” value ([3]; 37° C., absence of NADPH) is on record?
Answer: The value was “quite stable”.

Question: What about the “half-life in mouse liver microsomes” value ([3]; 37° C., presence of NADPH) of the same compound?
Answer: Its value is 25 min.

Question: Which results are given for `C[C@H](Oc1cccc(Cl)c1Cl)C(=O)Nc1ccc2nc(-c3cncs3)oc2c1` [Compound Q64, (S)-2-(2,3-dichlorophenoxy)-N-(2-(thiazol-5-yl)benzo[d]oxazol-6-yl) propanamide]?
Answer: IC50 (F. tularensis IMPDH): 93.7 nM; IC50 (B. anthracis IMPDH): 203 nM

Question: Which IC50 (CpIMPDH [5]) does the source give for `Cc1cc2cc(NC(=O)Cc3nn(C)c(=O)c4ccccc34)ccc2o1` [Compound D62, N-(2-methylbenzofuran-5-yl)-2-(3-methyl-4-oxo-3,4-dihydrophthalazin-1-yl)-acetamide] here?
Answer: The IC50 was 70 nM.

Question: For `CCn1c2ccccc2c2cc(NC(=O)Cc3nn(C)c(=O)c4ccccc34)ccc21` [Compound D71, N-(9-ethyl-9H-carbazol-3-yl)-2-(3-methyl-oxo-3,4-dihydrophthalazin-1-yl) acetamide], which “CpIMPDH inhibitory activity” value (CpIMPDH [1]) is on record?
Answer: The value was “not active”.

Question: Which IC50 (F. tularensis IMPDH) does the source give for `C=C(C)c1cccc(C(C)(C)NC(=O)Nc2ccc(Cl)c(C(=O)O)c2)c1` [Compound P138] here?
Answer: The IC50 was 120 nM.

Question: What about the IC50 (B. anthracis IMPDH) of the same compound?
Answer: Its IC50 is 67 nM.
